We go through 3 compounds from patent US9216977B2 (The University of North Carolina at Chapel Hill, priority 2009, dated 2015).

Where two headings read alike, the source gives them in different places.

Series [1] relates to A549. Nature of the series: in vitro screen against human tumor cell line A549 (lung), GI50. It counts as cell-based.
The test system of series [2] is DU145. In words: in vitro screen against human tumor cell line DU-145 (prostate), GI50. It counts as cell-based.
For series [3], the system named is KB. Nature of the series: in vitro screen against human tumor cell line KB (nasopharyngeal), GI50. It counts as cell-based. The note with it: for GI50: read-out: GI50 KB.
Series [4] concerns HCT-8. In words: in vitro screen against human tumor cell line HCT-8 (colon), GI50. It counts as cell-based.
The subject of series [5] is panel of cancer cell lines including A549 (lung), DU-145 (prostate), KB (nasopharyngeal), and HCT-8 (colon). Nature of the series: cells. The note with it: Homo sapiens, read-out: range of activities (GI50) over the cell line panel.
In series [6] the test system is rats. The note with it: rat, in vivo; cited from earlier work.

`COc1ccc2c3c(c4cc(OC)c(OC)cc4c2c1)C[C@H]1CN(C)CN1C3` [Compound 3h, (S)-12-aza-12N-methyl-antofine] registered a melting point of 182 to 184 °C. Further, the 50% growth inhibitory concentration (GI50) in series [1] (Example 2, Table 2, 12-aza-antofines, read-out: GI50 A549) is 660 nM. Further, in series [2] (Example 2, Table 2, 12-aza-antofines, read-out: GI50 DU145), the GI50 was 2030 nM. In addition, the GI50 in series [3] (Example 2, Table 2, 12-aza-antofines) was found to be 1720 nM. Besides, in series [4] (Example 2, Table 2, 12-aza-antofines, read-out: GI50 HCT-8), the GI50 was 1000 nM. The GI50 in series [5] is 660 to 2030 nM.

With `COc1ccc2c3c(c4cc(OC)c(OC)cc4c2c1)C[C@H]1CCCCN1C3` [R-cryptopleurine, reference compound], the GI50 in series [1] (read-out: A549 GI50) came out at 1.38 nM; in series [1] (read-out: GI50 A549), 1.38 nM; in series [2] (read-out: DU145 GI50), 1.59 nM; in series [2] (read-out: GI50 DU145), 1.59 nM; in series [3], 1.51 nM; in series [4] (read-out: GI50 HCT-8) it was 1.09 nM. Besides, the GI50 in series [4] (read-out: HCT-8 GI50) was found to be 1.09 nM. Moreover, the “KB GI50” value in series [3] turned out to be 1.51 nM. In series [6], the “toxicity in animal tests” value is reported as “quite toxic”.

With `COc1cc2c3c(c4cc(OC)c(OC)cc4c2cc1OC)CN1CCC[C@@H]1C3` [tylophorine], in series [6], the generally non-toxic dose entry is given as “up to 500 mg/kg”.
